Laboratory results as given in ChEMBL document CHEMBL4376833, “Influence of Non-natural Cationic Amino Acids on the Biological Activity Profile of Innate Defense Regulator Peptides” (J Med Chem, 2019).
Calls of active or inactive are those of the source. No rule for the calls is given here. Non-standard residues stand in square brackets, D forms with d. Residues, ends and D or L forms follow the SMILES beside them. hArg = N=C(N)NCCCC[C@H](N)C(=O)O; Agp = N=C(N)NC[C@H](N)C(=O)O; Orn = NCCC[C@H](N)C(=O)O; Dab = NCC[C@H](N)C(=O)O; Dap = NC[C@H](N)C(=O)O

Experiments:
Staphylococcus aureus [1] = experiment: Antibiofilm activity against methicillin-resistant Staphylococcus aureus assessed as inhibition of biofilm formation by measuring residual biofilm growth incubated for overnight at 10-fold dilution by crystal violet staining based microtiter plate assay relative to control; assay type: functional
Staphylococcus aureus [2] = experiment: Antibiofilm activity against methicillin-resistant Staphylococcus aureus assessed as inhibition of biofilm formation incubated for overnight by crystal violet staining based microtiter plate assay; assay type: functional, organism-based
Staphylococcus aureus [3] = experiment: Antibacterial activity against methicillin-resistant Staphylococcus aureus assessed as alteration in bacterial growth incubated for overnight by microtiter plate based spectrophotometric analysis; assay type: functional, organism-based

Row | Molecule | residual biofilm growth (% of control) (Staphylococcus aureus [1]) [%] | inhibition (Staphylococcus aureus [2]) | Activity (Staphylococcus aureus [3])
1 | CC[C@H](C)[C@H](NC(=O)[C@H](CC(C)C)NC(=O)[C@H](CCCNC(=N)N)NC(=O)[C@@H](N)C(C)C)C(=O)N[C@H](C(=O)N[C@@H](C)C(=O)N[C@H](C(=O)N[C@@H](CCCNC(=N)N)C(=O)N[C@@H](CNC(=N)N)C(=O)N[C@@H](Cc1c[nH]c2ccccc12)C(=O)N[C@@H](CCCNC(=N)N)C(=O)N[C@@H](CCCNC(=N)N)C(N)=O)C(C)C)C(C)C (H-VRLIVAVR[Agp]WRR-NH2) | 104.1 | Dose-dependent effect | Active
2 | CC[C@H](C)[C@H](NC(=O)[C@H](CCCNC(=N)N)NC(=O)[C@@H](NC(=O)[C@H](C)NC(=O)[C@@H](NC(=O)[C@@H](NC(=O)[C@H](CC(C)C)NC(=O)[C@H](CNC(=N)N)NC(=O)[C@@H](N)C(C)C)[C@@H](C)CC)C(C)C)C(C)C)C(=O)N[C@@H](Cc1c[nH]c2ccccc12)C(=O)N[C@@H](CCCNC(=N)N)C(=O)N[C@@H](CCCNC(=N)N)C(N)=O (H-V[Agp]LIVAVRIWRR-NH2) | 28.3 | Dose-dependent effect | Active
3 | H-KRLIVAVRIWRR-NH2 | 12 | Dose-dependent effect | Active
4 | H-VRLIVAVKIWRR-NH2 | 17.9 | Dose-dependent effect | Active
5 | CC[C@H](C)[C@H](NC(=O)[C@H](CCCNC(=N)N)NC(=O)[C@@H](NC(=O)[C@H](C)NC(=O)[C@@H](NC(=O)[C@@H](NC(=O)[C@H](CC(C)C)NC(=O)[C@H](CCCNC(=N)N)NC(=O)[C@@H](N)CCN)[C@@H](C)CC)C(C)C)C(C)C)C(=O)N[C@@H](Cc1c[nH]c2ccccc12)C(=O)N[C@@H](CCCNC(=N)N)C(=O)N[C@@H](CCCNC(=N)N)C(N)=O (H-[Dab]RLIVAVRIWRR-NH2) | 14.2 | Dose-dependent effect | Active
6 | CC[C@H](C)[C@H](NC(=O)[C@H](CCCNC(=N)N)NC(=O)[C@@H](NC(=O)[C@H](C)NC(=O)[C@@H](NC(=O)[C@@H](NC(=O)[C@H](CC(C)C)NC(=O)[C@H](CCCNC(=N)N)NC(=O)[C@@H](N)C(C)C)[C@@H](C)CC)C(C)C)C(C)C)C(=O)N[C@@H](Cc1c[nH]c2ccccc12)C(=O)N[C@@H](CCCNC(=N)N)C(=O)N[C@@H](CN)C(N)=O (H-VRLIVAVRIWR[Dap]-NH2) | 11.9 | Dose-dependent effect | Active
7 | H-VRRIVAVRIWRR-NH2 | 83.7 | Dose-dependent effect | Active
8 | H-VRLIVAVRIWKR-NH2 | 11.8 | Dose-dependent effect | Active
9 | CC[C@H](C)[C@H](NC(=O)[C@H](CCCNC(=N)N)NC(=O)[C@@H](NC(=O)[C@H](C)NC(=O)[C@@H](NC(=O)[C@@H](NC(=O)[C@H](CCN)NC(=O)[C@H](CCCNC(=N)N)NC(=O)[C@@H](N)C(C)C)[C@@H](C)CC)C(C)C)C(C)C)C(=O)N[C@@H](Cc1c[nH]c2ccccc12)C(=O)N[C@@H](CCCNC(=N)N)C(=O)N[C@@H](CCCNC(=N)N)C(N)=O (H-VR[Dab]IVAVRIWRR-NH2) | 48.6 | Dose-dependent effect | Active
10 | CC[C@H](C)[C@H](NC(=O)[C@H](CCN)NC(=O)[C@@H](NC(=O)[C@H](C)NC(=O)[C@@H](NC(=O)[C@@H](NC(=O)[C@H](CC(C)C)NC(=O)[C@H](CCCNC(=N)N)NC(=O)[C@@H](N)C(C)C)[C@@H](C)CC)C(C)C)C(C)C)C(=O)N[C@@H](Cc1c[nH]c2ccccc12)C(=O)N[C@@H](CCCNC(=N)N)C(=O)N[C@@H](CCCNC(=N)N)C(N)=O (H-VRLIVAV[Dab]IWRR-NH2) | 103.9 | Dose-dependent effect | Active
11 | CC[C@H](C)[C@H](NC(=O)[C@H](CC(C)C)NC(=O)[C@H](CCCNC(=N)N)NC(=O)[C@@H](N)C(C)C)C(=O)N[C@H](C(=O)N[C@@H](C)C(=O)N[C@H](C(=O)N[C@@H](CCCNC(=N)N)C(=O)N[C@@H](CCCN)C(=O)N[C@@H](Cc1c[nH]c2ccccc12)C(=O)N[C@@H](CCCNC(=N)N)C(=O)N[C@@H](CCCNC(=N)N)C(N)=O)C(C)C)C(C)C (H-VRLIVAVR[Orn]WRR-NH2) | 79.3 | Dose-dependent effect | Active
12 | H-VRLIVAVRRWRR-NH2 | 70.2 | Dose-dependent effect | Active
13 | CC[C@H](C)[C@H](NC(=O)[C@H](CCCNC(=N)N)NC(=O)[C@@H](NC(=O)[C@H](C)NC(=O)[C@@H](NC(=O)[C@@H](NC(=O)[C@H](CC(C)C)NC(=O)[C@H](CCCNC(=N)N)NC(=O)[C@@H](N)CN)[C@@H](C)CC)C(C)C)C(C)C)C(=O)N[C@@H](Cc1c[nH]c2ccccc12)C(=O)N[C@@H](CCCNC(=N)N)C(=O)N[C@@H](CCCNC(=N)N)C(N)=O (H-[Dap]RLIVAVRIWRR-NH2) | 8.5 | Dose-dependent effect | Active
14 | H-VRLIVAVRIRRR-NH2 | 33.2 | Dose-dependent effect | Active
15 | CC[C@H](C)[C@H](NC(=O)[C@H](CCCNC(=N)N)NC(=O)[C@@H](NC(=O)[C@H](CNC(=N)N)NC(=O)[C@@H](NC(=O)[C@@H](NC(=O)[C@H](CC(C)C)NC(=O)[C@H](CCCNC(=N)N)NC(=O)[C@@H](N)C(C)C)[C@@H](C)CC)C(C)C)C(C)C)C(=O)N[C@@H](Cc1c[nH]c2ccccc12)C(=O)N[C@@H](CCCNC(=N)N)C(=O)N[C@@H](CCCNC(=N)N)C(N)=O (H-VRLIV[Agp]VRIWRR-NH2) | 104.8 | Dose-dependent effect | Active
16 | CC[C@H](C)[C@H](NC(=O)[C@H](CN)NC(=O)[C@@H](NC(=O)[C@H](C)NC(=O)[C@@H](NC(=O)[C@@H](NC(=O)[C@H](CC(C)C)NC(=O)[C@H](CCCNC(=N)N)NC(=O)[C@@H](N)C(C)C)[C@@H](C)CC)C(C)C)C(C)C)C(=O)N[C@@H](Cc1c[nH]c2ccccc12)C(=O)N[C@@H](CCCNC(=N)N)C(=O)N[C@@H](CCCNC(=N)N)C(N)=O (H-VRLIVAV[Dap]IWRR-NH2) | 26.8 | Dose-dependent effect | Active
17 | CC[C@H](C)[C@H](NC(=O)[C@H](CCCNC(=N)N)NC(=O)[C@@H](NC(=O)[C@H](C)NC(=O)[C@@H](NC(=O)[C@H](CCCCNC(=N)N)NC(=O)[C@H](CC(C)C)NC(=O)[C@H](CCCNC(=N)N)NC(=O)[C@@H](N)C(C)C)C(C)C)C(C)C)C(=O)N[C@@H](Cc1c[nH]c2ccccc12)C(=O)N[C@@H](CCCNC(=N)N)C(=O)N[C@@H](CCCNC(=N)N)C(N)=O (H-VRL[hArg]VAVRIWRR-NH2) | 107.6 | Dose-dependent effect | Active
18 | CC[C@H](C)[C@H](NC(=O)[C@H](CCCNC(=N)N)NC(=O)[C@@H](NC(=O)[C@H](C)NC(=O)[C@@H](NC(=O)[C@@H](NC(=O)[C@H](CC(C)C)NC(=O)[C@H](CCCNC(=N)N)NC(=O)[C@@H](N)C(C)C)[C@@H](C)CC)C(C)C)C(C)C)C(=O)N[C@@H](CCN)C(=O)N[C@@H](CCCNC(=N)N)C(=O)N[C@@H](CCCNC(=N)N)C(N)=O (H-VRLIVAVRI[Dab]RR-NH2) | 90.8 | Dose-dependent effect | Active
19 | CC[C@H](C)[C@H](NC(=O)[C@H](CCCNC(=N)N)NC(=O)[C@@H](NC(=O)[C@H](C)NC(=O)[C@@H](NC(=O)[C@@H](NC(=O)[C@H](CCCCNC(=N)N)NC(=O)[C@H](CCCNC(=N)N)NC(=O)[C@@H](N)C(C)C)[C@@H](C)CC)C(C)C)C(C)C)C(=O)N[C@@H](Cc1c[nH]c2ccccc12)C(=O)N[C@@H](CCCNC(=N)N)C(=O)N[C@@H](CCCNC(=N)N)C(N)=O (H-VR[hArg]IVAVRIWRR-NH2) | 108.6 | Dose-dependent effect | Active
20 | CC[C@H](C)[C@H](NC(=O)[C@H](CCCNC(=N)N)NC(=O)[C@@H](NC(=O)[C@H](C)NC(=O)[C@@H](NC(=O)[C@H](CCN)NC(=O)[C@H](CC(C)C)NC(=O)[C@H](CCCNC(=N)N)NC(=O)[C@@H](N)C(C)C)C(C)C)C(C)C)C(=O)N[C@@H](Cc1c[nH]c2ccccc12)C(=O)N[C@@H](CCCNC(=N)N)C(=O)N[C@@H](CCCNC(=N)N)C(N)=O (H-VRL[Dab]VAVRIWRR-NH2) | 103.3 | Dose-dependent effect | Active
21 | H-VRLIVAVRIWRK-NH2 | 6 | Dose-dependent effect | Active
22 | H-VRLIVAKRIWRR-NH2 | 101.6 | Dose-dependent effect | Active
23 | H-VRLIVARRIWRR-NH2 | 102.6 | Dose-dependent effect | Active
24 | H-VRKIVAVRIWRR-NH2 | 88.8 | Dose-dependent effect | Active
